Entries after “also recorded” stand apart in the source; their conditions may differ. Read-outs that look alike come from different tables or passages of the source.
What was measured:
allogeneic skin grafts = assay: Trial II, skin graft survival test in rats (recipient Osborne Mendel, donor Lewis), vs azathioprine; type: in vivo; details: far smaller quantities of Substance A
Procedure: Route of Intragastric via stomach tube,
suspended in 0.8% Methocel
Volume: 0.01 ml per gram body weight and dose
Trial II/from Day -2 before grafting to Day +9
Trial II/4-8 mg/kg daily increasing over 12 days
Two allogeneic skin grafts from a donor rat are transferred to a receiving rat from an unrelated inbred strain. The panniculus carnosus attached to the graft may either be removed by dissection (suprapannicular graft) or be left on the graft (subpannicular graft). Grafting is conducted on Day 0 under light ether narcosis subsequent to shaving and cleanup of the grafting sites. The grafts are fixed on the graft receptor sites by dressing with a suitable bandage. From Day +9 a protective colar is placed on the animals, the bandage removed, and the status of the grafts daily controlled. The assessment of the graft function is conducted by means of a graduation scale, which allows for differentiation of rejection corresponding to a three-degree of severity score. The trial ends on the day when 50% of the animals of one group have rejected both grafts. The lengthening of the graft survival time in comparison to the controls is determined in days.
Recipient: Osborne Mendel .male., Donor: Lewis .male.. Two suprapannicular grafts were transferred from a donor to a recipient.

L1210 leukemia = type: in vivo, CD2 mice; details: for Mean Survival Time: controls 8; for % Increase in Mean Survival Time (toxic death): mouse, in vivo, po
Source text: Preparation: As suspension freshly prepared
before each administration
Route of Oral, suspended in 0.8%
administration: Methocel
Volume: 0.01 per gram body weight
daily for 9 days, if not
L 1210/Rij adaptation of L1210 leukemia in CD2 mice (C57B1×DBA2,Fl hybrid). On the day before administration of the substance 10^5 leukemic cells are inoculated intraperitoneally. The cages are controlled 2×X daily for dead animals. The terminal point is the mean survival of five mice/dosage compared with ten untreated controls.

growing hair follicle = assay: Antiproliferative activity upon topical administering to rats (hair growth); type: in vivo, Long Evans rats; details: 0.5% solution in absolute ethanol, 5-10 mg/animal daily
Procedure: No control standard known
Preparation: Fresh before each
Route of Topically by pipetting as
administration: 0.5% solution in absolute
Volume: 1 ml per animal and dose
Tested dose: 5 mg/animal daily for 14 days
10 mg/animal daily for 7 days
A protective collar is placed on male rats of the Long Evans strain, fur color "black-hooded." A rectangle measuring 3 cm long and 1.5 cm wide is marked with the aid of a template on the dorsal skin in the region of the black dorsal hair strip subsequent to shaving and cleansing. The test solution is slowly applied dropwise to this rectangle, so as to avoid it running off onto the surrounding skin. The solvent is applied in the same manner to the control animals. After 21 days of treatment the hair growth is assessed on the treated areas compared with the control areas.

Pentetrazole-convulsion = Pentetrazole-convulsion model; type: in vivo; details: Mus musculus, po; i.g., mice
[1] = system: Mammary adenocarcinoma 25; assay: Mammary adenocarcinoma 25 (CCTM test); type: in vivo, mice
Procedure: (§5) The CCTM assay assesses the antitumor activity of a test agent by measurement of the treatment-induced delay of tumor growth. Tumor growth delay is used because, unlike T/C type assays, the measured parameter is independent of time.
(§6) Test animals are Fl hybrid mice derived from the inbred strain of tumor origin. After the required mice are randomized, they receive SC implants of either trocar fragments (30-50 mg) or appropriate dilutions of tumor brei on Day 0. Samples for each donor tumor or from the final brei are incubated in thioglycolate media as a check for gross contamination of the tumor material. After tumor inoculation, the test mice are rerandomized and distributed to test group as per the specific test protocol.
Survival is checked daily for each test group. Both the number dead and the number living are counted and recorded. All dead mice are autopsied to ascertain the probable cause of death (drug or tumor). Clinical signs are observed and recorded for all test groups. Individual body weights are recorded at least weekly as directed in the specific test protocol. Each tumor is measured with calipers as per the protocol (usually two to three times/week).
Any surviving animal with a tumor that is larger than the smallest lethal control tumor for two successive measurements will be sacrificed unless:
This time may be calculated as:
Td=tumor volume doubling time (days), calculated from the slope of a long-linear least squares fit of the growth curve between 63 and 1000 mg for each control tumor. The mean value for the control group is used for all other calculations that require Td.
T,C=median time in days for the tumor in a given group to reach a predetermined evaluation size (usually 750 mg). T=treated groups/C=control group. These values are calculated by log/linear interpolation between the nearest tumor measurements on either side of the evaluation size.
T-C=tumor growth delay in days (treatment minus control).
Gross Log Kill=total number of logs of tumor cell kill produced by the given treatment regimen.
Gross Kill=(T-C)/3.32*Td)
Net Log Kill=the difference in logs between the tumor burden after the last treatment and the initial pretreatment burden. Net kill reflects the effectiveness of the overall therapy accounting for the growth of the tumor between individual treatments of the therapeutic regimen. Net kill allows valid comparisons of different treatment regimens, i.e., those with different durations of treatment that allow different amounts of tumor growth during therapy.
Net Kill=[(T-C)-DRx]/(3.32*Td)
(§7) All tumor-free survivors (cures) are excluded from the calculation of T-C and cell kill values. Thus, all calculated end points represent the response of the treatment failures.

[2] = system: Mammary adenocarcinoma 16; assay: Mammary adenocarcinoma 16 (CCTM test); type: in vivo, mice; details: SC PO, Days 1-16, 56 mg/kg
Procedure: as §5, §6
Survival is checked daily for each test group. Both the number dead and the number living are counted and recorded. All dead mice are autopsied to ascertain the probable cause of death (drug or tumor). Clinical signs are observed and recorded for all test groups. Individual body weights are recorded at least weekly as directed in the specific test protocol. Each tumor is measured with calipers as per the protocol (usually two to three times/week). […]
This time may be calculated as:
Td=tumor volume doubling time (days), calculated from the slope of a long-linear least squares fit of the growth curve between 63 and 1000 mg for each control tumor. […]
T,C=median time in days for the tumor in a given group to reach a predetermined evaluation size (usually 750 mg). […] These values are calculated by log/linear interpolation between the nearest tumor measurements on either side of the evaluation size. […]
as §7

BN leukemia = BN leukemia (CCLS test); type: in vivo, mice; details: for % T/C: IV PO
Source text: (§1) The two types of assays used were the standard CCTM test for solid tumors and the CCLS test for leukemia.
(§2) The CCLS assay assesses the antitumor activity of a test agent by measurement of the treatment-induced increase in host lifespan. Only rapidly growing tumors that kill their respective hosts in less than 30 days are appropriate for life span assays.
Test animals are appropriate Fl hybrid mice derived for the inbred strain of tumor origin. After the required mice are randomized, they receive implants (IP, IV, IC, IM, or SC) of appropriately diluted ascites fluid or dilutions of tumor brei on Day 0. A sample from the final inocula is incubated in thioglycolate media as a check for gross contamination of the tumor material. After tumor inoculation, the test mice are rerandomized and distributed to test groups as per the specific test protocol.
(§3) Test agents are dissolved or suspended in any of several vehicles and are administered by the routes and treatment schedules specified on the test protocol. All animals are monitored for signs of acute toxicity and side effects.
Survival is checked daily for each test group. Both the number dead and the number living are counted and recorded. All dead mice are autopsied to ascertain the probably cause of death (drug or tumor). Clinical signs are observed and recorded for all test groups. Group body weights are recorded at least weekly as directed in the specific test protocol.
For most life span assays, any animal surviving more than 60 days is sacrificed and autopsied to determine the tumor burden present. It is possible that specific protocols involving unusual tumors or routes of tumor implantation will call for longer termination dates.
(§4) Td=tumor volume doubling time (days), calculated from the slope of a log-linear least square fit of the survival time vs inoculum curve for titrated inocula of tumor cells in untreated mice.
MLS=median life span, calculated by a method appropriate for grouped observations.
NOTE: Some adjustments in these calculations are made to make comparisons with the appropriate control cage more accurate. The slope of the titration curve (least squares fit) is used to calculate the Td for the tumor, but the life span increases of the treated animals are based only on the MLS of the control cage with the same initial inoculum (not on the least square approximation from the titration curve). This in theory reduces any effects from dilution, etc.
All tumor-free survivors (cures) are excluded from the calculation of MLS and cell kill values. Thus all calculated end points represent the response of the treatment failures.

L5222 leukemia = L5222 leukemia (CCLS test); type: in vivo, mice; details: IP PO
Source text: as §1, §2
Test animals are appropriate Fl hybrid mice derived for the inbred strain of tumor origin. After the required mice are randomized, they receive implants (IP, IV, IC, IM, or SC) of appropriately diluted ascites fluid or dilutions of tumor brei on Day 0. […]
as §3
Survival is checked daily for each test group. Both the number dead and the number living are counted and recorded. […] Clinical signs are observed and recorded for all test groups. Group body weights are recorded at least weekly as directed in the specific test protocol. […]
as §4
MLS=median life span, calculated by a method appropriate for grouped observations. […]

[3] = system: MNU-induced rat mammary tumor; assay: MNU-induced mammary tumor (CCTR); type: in vivo; details: for % T/C / Rating: PO, 4 times daily, Days 1-5 for 5 weeks
Source text: Doses just under the acutely lethal dose can be given indefinitely (for more than 30 days), during which the treated animals regain their initial weight loss.

Distribution coefficient = type: physicochemical; details: n-octanol/water pH 7.4/20° C.; read-out: log VK (distribution coefficient)
Source text: This is also the case with intragastric application, as shown by certain pharmacological effects.

[4] = system: peripheral leukocytes and lymphocytes; assay: Influence on peripheral leukocytes and lymphocytes in rhesus monkeys; type: in vivo; details: 1× daily 10 mg/kg i.g.
Procedure: Dosage: 1×daily 10 mg/kg i.g.
FIG. 1: Rhesus monkey ZE, .female.
FIG. 2: Rhesus monkey YL, .female.

humoral immunoresistance = assay: Susceptibility to bacterial infections in treated rats; type: in vivo; details: sustained period, high doses
Source text: An inhibition of the humoral immune system (antibody-producing B-lymphocytes) by the substances of the invention and a possibility of therapy resulting from this, e.g., for autoaggression diseases, which are characterized by an increase in antibody production against the body's own tissues, can currently only be concluded indirectly.

[5] = system: murine tumors and human tumor xenografts; assay: Antineoplastic activity in tumor-carrying animals, general statements; type: in vivo, mice
[6] = intragastric / oral, vs untreated control

Nc1ccc(C(=O)Nc2ccccc2N)cc1 [Substance A, 4-Amino-N-(2'-aminophenyl)-benzamide]
effect compared with standard azathioprine (allogeneic skin grafts): equally effective as the immunosuppressive standard azathioprine
Mean Survival Time (L1210 leukemia; 4 × 180 mg/kg PO, n = 5): 5 days
Mean Survival Time (L1210 leukemia; 4 × 240 mg/kg PO, n = 5): 5 days
Mean Survival Time (L1210 leukemia; 7 × 120 mg/kg PO, n = 5): 6 days
% Increase in Mean Survival Time (L1210 leukemia; 9 × 60 mg/kg PO, n = 5): 38%
Mean Survival Time (L1210 leukemia; 9 × 60 mg/kg PO, n = 5): 11 days
assessment of activity (L1210 leukemia; moderate dosage): significant activity
% Increase in Mean Survival Time (toxic death) (L1210 leukemia; 120 mg/kg): toxic death
% Increase in Mean Survival Time (toxic death) (L1210 leukemia; 180 mg/kg): toxic death
% Increase in Mean Survival Time (toxic death) (L1210 leukemia; 240 mg/kg): toxic death
inhibition of hair growth / topical antiproliferative action (growing hair follicle): clear inhibition of hair growth; also recorded: distinct antiproliferate action
ED50 (Pentetrazole-convulsion): 44 mg/kg
% T/C ([1]; SC PO, Days 3-24, 50 mg/kg): 0%
cures ([1]; SC PO, Days 3-24, 50 mg/kg, 6 out of 10 cures): 6/10
(T-C) tumor growth delay ([1]; SC PO, Days 25-36, 50 mg/kg): 16 days
Cell Kill Net ([1]; SC PO, Days 25-36, 50 mg/kg): 1.6 logs
anticancer activity ([1]; mammary 25): significant anticancer activity has been demonstrated and confirmed
(T-C) tumor growth delay [2]: 11 days
Cell Kill Gross [2]: 3.0 log10
Cell Kill Net [2]: -1.2 logs
anticancer activity (BN leukemia; BN leukemia): significant anticancer activity has been demonstrated and confirmed
% T/C (BN leukemia; Days 1-5, 20 mg/kg): 356%
% T/C (BN leukemia; Days 1-5, 30 mg/kg): 430%
% T/C (BN leukemia; Days 7-11, 14-18, 20 mg/kg): 335%
% T/C (BN leukemia; Days 7-11, 14-18, 21-25, 20 mg/kg): 474%
% T/C (BN leukemia; Days 7-11, 14-18, 21-25, 28-32, 35-39, 8 mg/kg): 343%
% T/C (L5222 leukemia; Days 1, 4, 7, 48 mg/kg): 150%
% T/C (L5222 leukemia; Days 1-9, 15 mg/kg): 169%
anticancer activity ([3]; MNU-induced rat mammary tumor): significant anticancer activity has been demonstrated and confirmed
% T/C ([3]; 7.5 mg/kg): 3.5%
Rating ([3]; 7.5 mg/kg): AA (≤10% T/C High Activity)
% T/C ([3]; 10 mg/kg): 7.8%
Rating ([3]; 10 mg/kg): AA (≤10% T/C High Activity)
logD (Distribution coefficient): 2.2
reduction of the peripheral lymphocytes [4]: simultaneous distinct reduction of the peripheral lymphocytes
susceptibility to bacterial infections (humoral immunoresistance): increased susceptibility to bacterial infections
tumor regression late in an extended treatment regimen ([5]; after just two days' rest): partial regression of tumors
average survival time of tumor-carrying mice [5, 6]: significant increase in the average survival time
retardation in tumor growth [5, 6]: distinct retardation in the growth of the tumor
schedule dependence of activity ([5]; mouse, in vivo): schedule-dependent, with once daily treatment superior to either more highly fractionated or to intermittent regimens
cures and cell kills ([5]; oral, refractory tumor models in mice): significant number of cures and cell kills
anticancer activity, overall ([5]; spectrum of preclinical tumor models): significant activity against a spectrum of preclinical tumor models
